Experimental data reported in patent US7064124B2, “NF-κB inhibitor containing substituted benzoic acid derivative as active ingredient” (Daiichi Suntory Pharma Co., Ltd., priority 2001, dated 2006).
Converted amounts (≈) assume the structure as drawn.

Experiments:
NF-κB = NF-κB luciferase reporter assay in A549/NF-κBLuc cells stimulated with IL-1β; type: cell-based, human; settings: Homo sapiens, A549, A549/NF-κBLuc cells; compound added 1 hour before IL-1β, then 3 hours incubation; luciferase activity; read-out: NF-κB Inhibitory Activity (IC50)
Method in brief: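 A549 cells stably carrying an NF-κB-driven luciferase reporter (pNFκB-Luc, G418-selected) pre-treated with compound for 1 h, then stimulated with IL-1β and incubated a further 3 h. Luciferase signal used to derive IC50 for NF-κB inhibition.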

Structure (SMILES)	IC50 (NF-κB)	melting point
COC1=C(OC)C(=O)C(Cc2ccc(OC(C)=O)c(C(=O)Nc3ccc(OC)nc3)c2)=C(C)C1=O [Example 180]	23 µg/mL (≈ 47.9 µM)	104.5 to 107.5 °C
COC1=C(OC)C(=O)C(Cc2ccc(O)c(C(=O)Nc3ccc(OC)nc3)c2)=C(C)C1=O [Example 181, N-(6-Methoxypyridin-3-yl)-5-(5,6-dimethoxy-3-methyl-1,4-benzoquinon-2-yl)methyl-2-hydroxybenzamide]	11 µg/mL (≈ 25.1 µM)	169 to 170 °C
COC1=C(OC)C(=O)C(Cc2ccc(OC(C)=O)c(C(=O)Nc3ccc(Cl)nc3)c2)=C(C)C1=O [Example 184, N-(6-Chloropyridin-3-yl)-5-(5,6-dimethoxy-3-methyl-1,4-benzoquinon-2-yl)methyl-2-acetoxybenzamide]	56 µg/mL (≈ 115 µM)	74.5 to 77.5 °C
COC1=C(OC)C(=O)C(Cc2ccc(O)c(C(=O)Nc3ccc(Cl)nc3)c2)=C(C)C1=O [Example 185, N-(6-Chloropyridin-3-yl)-5-(5,6-dimethoxy-3-methyl-1,4-benzoquinon-2-yl)methyl-2-hydroxybenzamide]	11 µg/mL (≈ 24.8 µM)	166 to 169 °C
COC1=C(OC)C(=O)C(Cc2ccc(OC(C)=O)c(C(=O)Nc3cccnc3Cl)c2)=C(C)C1=O [Example 186, N-(2-Chloropyridin-3-yl)-5-(5,6-dimethoxy-3-methyl-1,4-benzoquinon-2-yl)methyl-2-acetoxybenzamide]	2 µg/mL (≈ 4.12 µM)	128.5 to 130 °C
COC1=C(OC)C(=O)C(Cc2ccc(O)c(C(=O)Nc3cccnc3Cl)c2)=C(C)C1=O [Example 187, N-(2-Chloropyridin-3-yl)-5-(5,6-dimethoxy-3-methyl-1,4-benzoquinon-2-yl)methyl-2-hydroxybenzamide]	2 µg/mL (≈ 4.52 µM)	152 to 154 °C
COC1=C(OC)C(=O)C(Cc2ccc(OC(C)=O)c(C(=O)Nc3ccc(C(=O)OC(C)(C)C)cc3)c2)=C(C)C1=O [Example 188, tert-Butyl N-[5-(5,6-dimethoxy-3-methyl-1,4-benzoquinon-2-yl)methyl-2-acetoxybenzoyl]-4-aminobenzoate]	9 µg/mL (≈ 16.4 µM)	78.5 to 81 °C
COC1=C(OC)C(=O)C(Cc2ccc(O)c(C(=O)Nc3ccc([N+](=O)[O-])cc3)c2)=C(C)C1=O [Example 191, N-[5-(5,6-Dimethoxy-3-methyl-1,4-benzoquinon-2-yl)methyl-2-hydroxybenzoyl]-4-nitroaniline]	4 µg/mL (≈ 8.84 µM)	213.5 to 215.5 °C
COC1=C(OC)C(=O)C(Cc2ccc(OC(C)=O)c(C(=O)Nc3ccc(NC(=O)OC(C)(C)C)cc3)c2)=C(C)C1=O [Example 199, N-[5-(5,6-Dimethoxy-3-methyl-1,4-benzoquinon-2-yl)methyl-2-acetoxybenzoyl]-4-(tert-butoxycarbonyl)aminoaniline]	16 µg/mL (≈ 28.3 µM)	188.5 to 191 °C
COC1=C(OC)C(=O)C(Cc2ccc(O)c(C(=O)Nc3ccc(NC(=O)OC(C)(C)C)cc3)c2)=C(C)C1=O [Example 200, N-[5-(5,6-Dimethoxy-3-methyl-1,4-benzoquinon-2-yl)methyl-2-hydroxybenzoyl]-4-(tert-butoxycarbonyl)aminoaniline]	17 µg/mL (≈ 32.5 µM)	127 to 129 °C
COC1=C(OC)C(=O)C(Cc2ccc(O)c(C(=O)Nc3cccnc3)c2)=C(C)C1=O.CS(=O)(=O)O [Example 202, N-(Pyridin-3-yl)-5-(5,6-dimethoxy-3-methyl-1,4-benzoquinon-2-yl)methyl-2-hydroxybenzamide (methanesulfonate)]	20 µg/mL	149.5 to 152 °C
COC1=C(OC)C(=O)C(Cc2ccc(O)c(C(=O)Nc3ccncc3)c2)=C(C)C1=O.CS(=O)(=O)O [Example 203, N-(Pyridin-4-yl)-5-(5,6-dimethoxy-3-methyl-1,4-benzoquinon-2-yl)methyl-2-hydroxybenzamide (methanesulfonate)]	30 µg/mL	199.5 to 201.5 °C
COC1=C(OC)C(=O)C(Cc2ccc(O)c(C(=O)Nc3ccc(N)cc3)c2)=C(C)C1=O.Cl [Example 205, N-[5-(5,6-Dimethoxy-3-methyl-1,4-benzoquinon-2-yl)methyl-2-hydroxybenzoyl]-p-phenylenediamine (hydrochloride)]	50 µg/mL	162 to 164 °C
COC1=C(OC)C(=O)C(Cc2cccc(C(=O)Nc3cccnc3)c2O)=C(C)C1=O [Example 207, N-(Pyridin-3-yl)-3-(5,6-dimethoxy-3-methyl-1,4-benzoquinon-2-yl)methyl-2-hydroxybenzamide]	98 µg/mL (≈ 240 µM)	169 to 171 °C
COC1=C(OC)C(=O)C(Cc2ccc(OC(C)=O)c(C(=O)Nc3ccc(-n4ccnc4)cc3)c2)=C(C)C1=O [Example 208, N-[5-(5,6-Dimethoxy-3-methyl-1,4-benzoquinon-2-yl)methyl-2-acetoxybenzoyl]-4-(imidazol-1-yl)aniline]	19 µg/mL (≈ 36.9 µM)	116.5 to 118.5 °C
COC1=C(OC)C(=O)C(Cc2ccc(O)c(C(=O)Nc3ccc(C(=O)OC(C)(C)C)cc3)c2)=C(C)C1=O [Example 214, tert-Butyl N-[5-(5,6-dimethoxy-3-methyl-1,4-benzoquinon-2-yl)methyl-2-hydroxybenzoyl]-4-aminobenzoate]	10 µg/mL (≈ 19.7 µM)	200.5 to 202 °C
COC1=C(OC)C(=O)C(Cc2ccc(O)c(C(=O)Nc3cccnc3OC)c2)=C(C)C1=O [Example 216, N-(2-Methoxypyridin-3-yl)-5-(5,6-dimethoxy-3-methyl-1,4-benzoquinon-2-yl)methyl-2-hydroxybenzamide]	10 µg/mL (≈ 22.8 µM)	112 to 114 °C
COC1=C(OC)C(=O)C(Cc2ccc(O)c(C(=O)Nc3cc(OC)ccc3OC)c2)=C(C)C1=O [Example 220, N-[5-(5,6-Dimethoxy-3-methyl-1,4-benzoquinon-2-yl)methyl-2-hydroxybenzoyl]-2,5-dimethoxyaniline]	66 µg/mL (≈ 141 µM)	130 to 132 °C
COC1=C(OC)C(=O)C(Cc2ccc(OC)c(C(=O)Nc3cccnc3Cl)c2)=C(C)C1=O [Example 221, N-(2-Chloropyridin-3-yl)-5-(5,6-dimethoxy-3-methyl-1,4-benzoquinon-2-yl)methyl-2-methoxybenzamide]	46 µg/mL (≈ 101 µM)	178 to 180 °C
COC1=C(OC)C(=O)C(Cc2ccc(O)c(C(=O)Nc3cccnc3N3CCOCC3)c2)=C(C)C1=O [Example 223, N-(2-Morpholinopyridin-3-yl)-5-(5,6-dimethoxy-3-methyl-1,4-benzoquinon-2-yl)methyl-2-hydroxybenzamide]	81 µg/mL (≈ 164 µM)	210 to 212.5 °C
COC1=C(OC)C(=O)C(Cc2ccc(O)c(C(=O)Nc3ccc(N4CCOCC4)nc3)c2)=C(C)C1=O [Example 225, N-(6-Morpholinopyridin-3-yl)-5-(5,6-dimethoxy-3-methyl-1,4-benzoquinon-2-yl)methyl-2-hydroxybenzamide]	24 µg/mL (≈ 48.6 µM)	102.5 to 105 °C
COC1=C(OC)C(=O)C(Cc2ccc(O)c(C(=O)Nc3ccnc(Cl)c3)c2)=C(C)C1=O [Example 227, N-(2-Chloropyridin-4-yl)-5-(5,6-dimethoxy-3-methyl-1,4-benzoquinon-2-yl)methyl-2-hydroxybenzamide]	20 µg/mL (≈ 45.2 µM)	142 to 144 °C
COC1=C(OC)C(=O)C(Cc2ccc(OC(C)=O)c(C(=O)Nc3cc(OC)ncn3)c2)=C(C)C1=O [Example 228, N-(6-Methoxypyrimidin-4-yl)-5-(5,6-dimethoxy-3-methyl-1,4-benzoquinon-2-yl)methyl-2-acetoxybenzamide]	64 µg/mL (≈ 133 µM)	138.5 to 141 °C
COC1=C(OC)C(=O)C(Cc2ccc(O)c(C(=O)Nc3cc(OC)ncn3)c2)=C(C)C1=O [Example 229, N-(6-Methoxypyrimidin-4-yl)-5-(5,6-dimethoxy-3-methyl-1,4-benzoquinon-2-yl)methyl-2-hydroxybenzamide]	59 µg/mL (≈ 134 µM)	209.5 to 211.5 °C
CC1=C(C)C(=O)C(Cc2ccc(O)c(C(=O)Nc3ccc(C(F)(F)F)cc3)c2)=C(C)C1=O [Example 235, N-[5-(3,5,6-Trimethyl-1,4-benzoquinon-2-yl)methyl-2-hydroxybenzoyl]-4-trifluoromethylaniline]	5 µg/mL (≈ 11.3 µM)	233 to 235 °C
CC1=C(C)C(=O)C(Cc2ccc(O)c(C(=O)Nc3cccnc3Cl)c2)=C(C)C1=O [Example 237]	5 µg/mL (≈ 12.2 µM)	199 to 201 °C
